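Briefly, cells in 96-well plates were exposed to five compound concentrations for 48 h, and endpoints were estimated by linear interpolation. At the TGI there is no net growth.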 Some results are limits rather than exact numbers.

Here are results for 16 molecules from PubChem BioAssay (NCI).

Some test systems named below: KM12 colon; HCT-116 colon; DU-145 prostate; IGROV1 ovarian; UACC-257 melanoma; HCC-2998 colon; UACC-62 melanoma; MDA-MB-231 breast; TK-10 renal; SF-539 CNS.
Common to all, as to assay: DTP human tumour cell line panel, 48 h

Consider `O=c1[nH]c(=O)n(COCCO)cc1-c1ccccc1`, for which the TGI in the test on KM12 colon, in the test on HCT-116 colon, in the test on DU-145 prostate, with IGROV1 ovarian, in the test on UACC-257 melanoma and with HCC-2998 colon was above 100 µM in each case. In addition, the TGI in the test with UACC-62 melanoma, with MDA-MB-231 breast and in the test on TK-10 renal was above 100 µM each time.

Take `C/C(=C/CC[C@](C)(OC1OC(CO)C(O)C(O)C1OC1OC(C)C(O)C(O)C1O)[C@H]1CC[C@]2(C)[C@@H]1CC[C@@H]1[C@@]3(C)CC[C@H](O)C(C)(C)[C@@H]3C[C@H](O)[C@]12C)CO` (stereo not given in full): the TGI with KM12 colon, in the test with HCT-116 colon, in the test with DU-145 prostate, in the test on IGROV1 ovarian, with UACC-257 melanoma and with SF-539 CNS was above 100 µM in each case. The TGI in the test on UACC-62 melanoma, with MDA-MB-231 breast and in the test on TK-10 renal was above 100 µM in each case.

As for `NC1=CN2c3ccccc3N(CC(=O)N3CCOCC3)C2C=C1` (stereo not given), the TGI in the test with KM12 colon, in the test with HCT-116 colon, in the test with DU-145 prostate, in the test with IGROV1 ovarian, in the test on UACC-257 melanoma and in the test on SF-539 CNS was above 100 µM each time. Moreover, the TGI in the test on UACC-62 melanoma, with MDA-MB-231 breast and in the test on TK-10 renal was above 100 µM each time.

With `COC(CO[Si](C)(C)N[Si](C)(C)OCC(OC)c1ccccc1)c1ccccc1` (stereo not given), the TGI in the test with KM12 colon, in the test with HCT-116 colon, in the test with DU-145 prostate, with IGROV1 ovarian, with UACC-257 melanoma and with HCC-2998 colon was above 100 µM throughout. The TGI in the test with UACC-62 melanoma and in the test with TK-10 renal was above 100 µM each time.

Take `C/C(=N\NC(=S)N/N=C(\C)c1ccccn1)c1ccccn1`: the TGI (as a rule, the concentration giving total growth inhibition) is above 100 µM in the test with KM12 colon; above 100 µM with HCT-116 colon; above 100 µM in the test on DU-145 prostate; above 100 µM in the test with IGROV1 ovarian; above 100 µM in the test with UACC-257 melanoma; 8.83 µM with SF-539 CNS. The values for the TGI with UACC-62 melanoma, with MDA-MB-231 breast and in the test with TK-10 renal were 15 µM, above 100 µM and above 100 µM, respectively.

For `CC1CN=C(c2ccc3c(c2)Cc2cc(C4=NCC(C)N4)ccc2-3)N1` (stereo not given), the TGI in the test with KM12 colon is 56 µM; in the test with HCT-116 colon, above 100 µM; in the test on DU-145 prostate, above 100 µM; in the test with IGROV1 ovarian, above 100 µM; in the test with UACC-257 melanoma, above 100 µM; in the test with HCC-2998 colon it was 39.2 µM. Also, the TGI in the test with UACC-62 melanoma is 99 µM; with MDA-MB-231 breast, above 100 µM; in the test with TK-10 renal, above 100 µM.

For the molecule `COC12OC3(C4OC41)C(C(=O)O[C@H]3CO[Si](C)(C)C(C)(C)C)C2S(=O)(=O)c1ccccc1` (stereo not given in full), the TGI with HCT-116 colon was above 7.06 µM; with DU-145 prostate, above 6.06 µM; in the test on UACC-257 melanoma, above 12.6 µM; in the test on SF-539 CNS, above 100 µM; in the test on HCC-2998 colon, above 100 µM; with UACC-62 melanoma, above 7.52 µM. Further, the TGI in the test on MDA-MB-231 breast was above 7.32 µM; in the test with TK-10 renal, above 100 µM.

For the molecule `Oc1cccc(-c2cc(=S)ss2)c1`, the TGI worked out at 43 µM in the test with KM12 colon; 33.3 µM with HCT-116 colon; 29.8 µM with IGROV1 ovarian; 28.4 µM with UACC-257 melanoma; 35 µM in the test on SF-539 CNS; 32.4 µM with HCC-2998 colon. The TGI worked out at 38.2 µM with UACC-62 melanoma, 31.5 µM in the test on MDA-MB-231 breast and 33.1 µM in the test on TK-10 renal.

Turning to `Nc1nc(-c2ccccc2)cc(-c2ccc(F)cc2)c1-c1ccc(Cl)cc1`, the TGI in the test with KM12 colon, with HCT-116 colon, with DU-145 prostate, in the test on IGROV1 ovarian, in the test with UACC-257 melanoma and in the test on HCC-2998 colon was above 100 µM each time. Also, the TGI with UACC-62 melanoma, with MDA-MB-231 breast and in the test on TK-10 renal was above 100 µM in each case.

On to `CC12CCC3=C(CSC4=C3CSc3ccccc34)C1=CCCC2=O` (stereo not given), for which the concentration for total growth inhibition (TGI) in the test with KM12 colon, in the test on HCT-116 colon, in the test with SF-539 CNS, in the test on HCC-2998 colon and in the test on TK-10 renal was above 100 µM throughout.

In the case of `O=C(O)CC(Cc1ccccc1)C(=O)O` (stereo not given), the TGI in the test on KM12 colon, in the test with HCT-116 colon, with DU-145 prostate, with IGROV1 ovarian, with UACC-257 melanoma and in the test with SF-539 CNS was above 100 µM in each case. For the same molecule, the concentration for total growth inhibition (TGI) with HCC-2998 colon, with UACC-62 melanoma and in the test on TK-10 renal was above 100 µM each time.

Turning to `C=CCCCN1C(=O)C2C3c4ccccc4C(C=O)(c4ccccc43)C2C1=O` (stereo not given), the TGI in the test with KM12 colon is 21.6 µM; in the test on HCT-116 colon, 14.9 µM; in the test with DU-145 prostate, 26.1 µM; in the test with IGROV1 ovarian, 65.1 µM; in the test with UACC-257 melanoma, 28.9 µM; in the test with HCC-2998 colon, 28.5 µM. Moreover, the TGI with UACC-62 melanoma came to 36.6 µM; in the test with MDA-MB-231 breast, 23.5 µM; in the test on TK-10 renal it was 30.2 µM.

Take `COc1ccc(NC(=O)c2cc(NC(=O)/C=C/c3ccccc3)c(OC)c(OC)c2)cc1`: the TGI with KM12 colon, with HCT-116 colon, with DU-145 prostate, with UACC-257 melanoma, in the test with SF-539 CNS and with UACC-62 melanoma was above 100 µM throughout. The TGI in the test with MDA-MB-231 breast and in the test with TK-10 renal was above 100 µM each time.

On to `c1ccc(C[P+]2(c3ccccc3)CCCCC2)cc1`, for which the TGI with KM12 colon, in the test on HCT-116 colon, in the test on IGROV1 ovarian, with UACC-257 melanoma, with SF-539 CNS and in the test on HCC-2998 colon was above 100 µM throughout. Further, the TGI in the test on UACC-62 melanoma and in the test with TK-10 renal was above 100 µM in each case.

With `COc1cc2[nH]c(=O)[nH]c2c2c(C)c[nH]c12`, the TGI in the test with KM12 colon, in the test with HCT-116 colon, with DU-145 prostate, in the test with IGROV1 ovarian, in the test with UACC-257 melanoma and in the test with HCC-2998 colon was above 100 µM in each case. In addition, the TGI with UACC-62 melanoma, in the test on MDA-MB-231 breast and in the test on TK-10 renal was above 100 µM throughout.

Regarding `CC(=O)Nc1ccc(S(=O)(=O)/N=c2/sc(S(N)(=O)=O)nn2C)cc1`, the TGI in the test on KM12 colon, with HCT-116 colon, with DU-145 prostate, in the test with SF-539 CNS, in the test on HCC-2998 colon and with UACC-62 melanoma was above 100 µM in each case. Moreover, the TGI with MDA-MB-231 breast and with TK-10 renal was above 100 µM each time.
